Reference: patent publication US11040052B2, “Methods and pharmaceutical compositions for modulating autophagy in a subject in need thereof” (INSERM (INSTITUT NATIONAL DE LA SANTE ET DE LA RECHERCHE …, priority 2013, dated 2021)
“Also recorded” adds a separate entry of the source.

Test system: starvation-induced autophagy in mice tissues
Test: Starved mice: tissue AcCoA, protein acetylation and starvation-induced autophagy
Format: in vivo
Method: C57BL/6 mice (Charles River Laboratory, […], France) were bred and maintained according to both the FELASA and the Animal Experimental Ethics Committee Guidelines (Val de Marne, France). Mice were housed in a temperature-controlled environment with 12 h light/dark cycles and received food and water ad libitum. For HC-related experiments, mice were injected intraperitoneally with a single 100 mg/kg dose and 6 h later were sacrificed and tissues were immediately frozen in liquid nitrogen. […] Tissue extracts were then centrifuged at 12,000 g at 4° C. and supernatants were collected. Protein concentration in the supernatants was evaluated by the bicinchoninic acid technique (BCA protein assay kit, Pierce Biotechnology, Rockford, Ill.). For hydroxycitrate-related weight-loss experiments, autophagy-deficient Atg4b^-/- mice were used. Atg4b^-/- mice have been previously described (Mariño et al., 2010). For HC-, spermidine-, and resveratrol-related experiments (tumour growth) mice were intraperitoneally injected with respectively 100 mg/kg, 50 mg/kg and 100 mg/kg doses at day 8 and day 9. At day 9, mice were intraperitoneally injected with 2 mg/kg single dose of Mitoxanthrone. For starvation related experiment (tumour growth) mice were treated as previously described (Fabrizio et. al., 2010). To avoid post-mortem autophagy induction, dead mice were immediately perfused with 4% paraformaldehyde (w:v in PBS, pH 7.4). Tissues were then harvested and further fixed with the same solution for at least 4 h, followed by treatment with 15% sucrose (w:v in PBS) for 4 h and with 30% sucrose (w:v in PBS) overnight. Tissue samples were embedded in Tissue-Tek OCT compound (Sakura Finetechnical Co. Ltd., Tokyo, Japan) and stored at -70° C. […] In each organ, the number of GFP-LC3 dots was counted in five independent visual fields from at least five mice using a TCS SP2 confocal fluorescence microscope (Leica Microsystems GmbH). […]

COC(=O)CCC(=O)C(=O)OC [DMKG, dimethyl-α-ketoglutarate]
AcCoA levels in mice tissues after 24 h starvation (intraperitoneal injection, starved mice, vs vehicle): increased cardiac AcCoA levels; also recorded: avoided the depletion of AcCoA
cytoplasmic protein acetylation in tissues of starved mice (parenteral administration): avoided the depletion of AcCoA, the deacetylation of cytosolic proteins; also recorded: avoided the depletion of AcCoA and the deacetylation of cytoplasmic proteins
starvation-induced autophagy in vivo (starved mice, LC3 lipidation and GFP-LC3 in heart and muscle): inhibited starvation-induced autophagy in vivo; also recorded: efficiently reduced autophagy in vivo
